The numbers were not newly measured in US7449451B2, “Use of multiple antioxidant micronutrients as systemic biological radioprotective agents against potential ionizing radiation risks” (priority 2002, dated 2008), which cites them from elsewhere.

The conditions of series [1]: in vivo.
Series [2] relates to mammalian cells in culture.
A further series concerns mitotic cells. To be noted: mitotic cells treated with cysteamine.

`N[C@@H](CCC(=O)N[C@@H](CS)C(=O)NCC(=O)O)C(=O)O` [Glutathione, glutathione]: the “hydrolysis in the intestine when ingested” value in series [1] is listed as “completely hydrolyzed in the intestine”.
For `CC(=O)N[C@@H](CS)C(=O)O` [N-acetylcysteine], the tolerability in humans entry in the series with human beings is “tolerated by humans very well”. In the series on glutathione, the “intracellular levels of glutathione” value is “actively increase the intracellular levels of glutathione without causing any toxicity”.
In the case of calcium ascorbate [vitamin C], the radioprotectant value entry with animals and humans was “marked radioprotectant value”.
In the case of `Cc1c(C)c2c(c(C)c1OC(=O)CCC(=O)O)CC[C@@](C)(CCC[C@H](C)CCC[C@H](C)CCCC(C)C)O2` [d-alpha tocopheryl succinate], the “reduction of radiation-induced transformation” value in series [2] is listed as “actively reduces the incidence of radiation-induced transformation”. In addition, the radioprotectant value entry in the series on animals and humans is “marked radioprotectant value”.
Regarding `O=C(O)CCCCC1CCSS1` (stereo not drawn) [alpha lipoic acid], in the series on human beings, the tolerability in humans entry was “tolerated by humans very well”. Also, the “intracellular levels of glutathione” value in the series with glutathione is “actively increase the intracellular levels of glutathione without causing any toxicity”.
For vitamin E, the “protection against lethal doses of cobalt-60” value in the series on mice is on record as “good protection”.
Regarding `NCCS` [cysteamine], in the series on animals, the “protection against bone marrow and gastrointestinal radiation syndromes” value was “protects animals against bone marrow (2, 31) and gastrointestinal (32) radiation syndromes”. The “resistance of mitotic cells to radiation” value in the series on mitotic cells was “became very resistant to radiation”. Further, the “toxicity when administered to human beings” value in the series on human beings (humans) was “extremely toxic”.
As for `CC1=C(/C=C/C(C)=C/C=C/C(C)=C/C=C/C=C(C)/C=C/C=C(C)/C=C/C2=C(C)CCCC2(C)C)C(C)(C)CCC1` [natural beta-carotene, beta-carotene], the “reduction of radiation-induced transformation” value in series [2] was “most effectively reduces radiation-induced transformation”. Further, in the series on animals and humans, the radioprotectant value result is recorded as “marked radioprotectant value”.
